Measurements: ChEMBL document CHEMBL3797052 (Eur J Med Chem, 2016)

Tests used:
[1] = tested on: SN12C; assay: Antiproliferative activity against human SN12C cells assessed as growth inhibition after 48 hrs by sulforhodamine B assay; assay type: functional; details: for CC50: read-out: LC50 (the source's name)
[2] = tested on: ACHN; assay: Antiproliferative activity against human ACHN cells assessed as growth inhibition after 48 hrs by sulforhodamine B assay; assay type: functional
[3] = Antiproliferative activity against human OVCAR5 cells assessed as growth inhibition after 48 hrs by sulforhodamine B assay; assay type: functional; details: OVCAR-5, 48 h; for CC50: read-out: LC50 (the source's name)
[4] = tested on: Malme-3M; assay: Antiproliferative activity against human MALME-3M cells assessed as growth inhibition after 48 hrs by sulforhodamine B assay; assay type: functional; details: for CC50: read-out: LC50 (the source's name)
[5] = Antiproliferative activity against human SW620 cells assessed as growth inhibition after 48 hrs by sulforhodamine B assay; assay type: functional; details: SW-620, 48 h; for CC50: read-out: LC50 (the source's name)
[6] = tested on: SR; assay: Antiproliferative activity against human SR cells assessed as growth inhibition after 48 hrs by sulforhodamine B assay; assay type: functional
[7] = tested on: K562; assay: Antiproliferative activity against human K562 cells assessed as growth inhibition after 48 hrs by sulforhodamine B assay; assay type: functional; details: K562, 48 h; for CC50: read-out: LC50 (the source's name)
[8] = Antiproliferative activity against human HL-60(TB) cells assessed as growth inhibition after 48 hrs by sulforhodamine B assay; assay type: functional; details: HL-60, 48 h; for CC50: read-out: LC50 (the source's name)
[9] = tested on: U-251; assay: Antiproliferative activity against human U251 cells assessed as cell growth at 10^-7 M after 48 hrs by sulforhodamine B assay; assay type: functional; details: U-251, 48 h, read-out: Activity
[10] = tested on: T47D; assay: Antiproliferative activity against human T47D cells assessed as cell growth at 10^-6 M after 48 hrs by sulforhodamine B assay; assay type: functional; details: read-out: Activity
[11] = tested on: T47D; assay: Antiproliferative activity against human T47D cells assessed as cell growth at 10^-4 M after 48 hrs by sulforhodamine B assay; assay type: functional; details: read-out: Activity
[12] = tested on: SK-MEL-5; assay: Antiproliferative activity against human SK-MEL-5 cells assessed as cell growth at 10^-7 M after 48 hrs by sulforhodamine B assay; assay type: functional; details: SK-MEL-5, 48 h, read-out: Activity
[13] = Antiproliferative activity against human OVCAR3 cells assessed as cell growth at 10^-7 M after 48 hrs by sulforhodamine B assay; assay type: functional; details: OVCAR-3, 48 h, read-out: Activity
[14] = target: RAF proto-oncogene serine/threonine-protein kinase (Homo sapiens, UniProt P04049); assay: Inhibition of human C-RAF measured after 40 mins by scintillation counting
Chain of RAF proto-oncogene serine/threonine-protein kinase (P04049 whole entry): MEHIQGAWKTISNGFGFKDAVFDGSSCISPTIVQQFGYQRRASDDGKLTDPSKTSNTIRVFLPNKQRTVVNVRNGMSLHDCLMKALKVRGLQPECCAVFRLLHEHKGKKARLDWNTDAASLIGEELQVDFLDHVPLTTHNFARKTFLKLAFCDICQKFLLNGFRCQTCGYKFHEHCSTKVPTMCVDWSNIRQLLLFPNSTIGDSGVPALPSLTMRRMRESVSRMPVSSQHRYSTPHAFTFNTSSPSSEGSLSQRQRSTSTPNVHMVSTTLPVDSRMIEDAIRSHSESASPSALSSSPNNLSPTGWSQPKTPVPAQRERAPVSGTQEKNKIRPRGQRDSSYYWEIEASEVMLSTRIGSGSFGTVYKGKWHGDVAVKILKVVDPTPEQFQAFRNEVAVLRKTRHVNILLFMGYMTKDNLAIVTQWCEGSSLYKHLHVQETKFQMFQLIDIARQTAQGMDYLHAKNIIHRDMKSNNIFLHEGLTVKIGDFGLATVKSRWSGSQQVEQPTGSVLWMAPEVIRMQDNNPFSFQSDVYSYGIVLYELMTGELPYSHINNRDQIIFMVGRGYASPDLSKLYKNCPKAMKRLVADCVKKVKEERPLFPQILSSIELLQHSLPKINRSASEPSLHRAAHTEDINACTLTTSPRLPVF

[15] = tested on: SR; assay: Antiproliferative activity against human SR cells assessed as cell growth at 10^-8 M after 48 hrs by sulforhodamine B assay; assay type: functional; details: read-out: Activity
[16] = tested on: EKVX; assay: Antiproliferative activity against human EKVX cells assessed as cell growth at 10^-8 M after 48 hrs by sulforhodamine B assay; assay type: functional; details: read-out: Activity
[17] = Antiproliferative activity against human HCC2998 cells assessed as cell growth at 10^-8 M after 48 hrs by sulforhodamine B assay; assay type: functional; details: HCC 2998, 48 h, read-out: Activity
[18] = Antiproliferative activity against human SF268 cells assessed as cell growth at 10^-8 M after 48 hrs by sulforhodamine B assay; assay type: functional; details: SF-268, 48 h, read-out: Activity
[19] = Antiproliferative activity against human SNB19 cells assessed as cell growth at 10^-8 M after 48 hrs by sulforhodamine B assay; assay type: functional; details: SNB-19, 48 h, read-out: Activity
[20] = tested on: M14; assay: Antiproliferative activity against human M14 cells assessed as cell growth at 10^-8 M after 48 hrs by sulforhodamine B assay; assay type: functional; details: M14, 48 h, read-out: Activity
[21] = tested on: SR; assay: Antiproliferative activity against human SR cells assessed as cell growth at 10^-6 M after 48 hrs by sulforhodamine B assay; assay type: functional; details: read-out: Activity
[22] = tested on: EKVX; assay: Antiproliferative activity against human EKVX cells assessed as cell growth at 10^-6 M after 48 hrs by sulforhodamine B assay; assay type: functional; details: read-out: Activity
[23] = tested on: U-251; assay: Antiproliferative activity against human U251 cells assessed as cell growth at 10^-6 M after 48 hrs by sulforhodamine B assay; assay type: functional; details: U-251, 48 h, read-out: Activity
[24] = tested on: NCI-H460; assay: Antiproliferative activity against human NCI-H460 cells assessed as cell growth at 10^-4 M after 48 hrs by sulforhodamine B assay; assay type: functional; details: NCI-H460, 48 h, read-out: Activity
[25] = Antiproliferative activity against human SF268 cells assessed as cell growth at 10^-4 M after 48 hrs by sulforhodamine B assay; assay type: functional; details: SF-268, 48 h, read-out: Activity
[26] = tested on: U-251; assay: Antiproliferative activity against human U251 cells assessed as cell growth at 10^-4 M after 48 hrs by sulforhodamine B assay; assay type: functional; details: U-251, 48 h, read-out: Activity
[27] = tested on: MDA-MB-435; assay: Antiproliferative activity against human MDA-MB-435 cells assessed as cell growth at 10^-8 M after 48 hrs by sulforhodamine B assay; assay type: functional; details: MDA-MB-435, 48 h, read-out: Activity
[28] = Antiproliferative activity against human OVCAR8 cells assessed as cell growth at 10^-8 M after 48 hrs by sulforhodamine B assay; assay type: functional; details: OVCAR-8, 48 h, read-out: Activity
[29] = tested on: SN12C; assay: Antiproliferative activity against human SN12C cells assessed as cell growth at 10^-8 M after 48 hrs by sulforhodamine B assay; assay type: functional; details: read-out: Activity
[30] = Antiproliferative activity against human DU145 cells assessed as cell growth at 10^-8 M after 48 hrs by sulforhodamine B assay; assay type: functional; details: DU-145, 48 h, read-out: Activity
[31] = tested on: MCF7; assay: Antiproliferative activity against human MCF7 cells assessed as cell growth at 10^-8 M after 48 hrs by sulforhodamine B assay; assay type: functional; details: MCF7, 48 h, read-out: Activity
[32] = tested on: SK-MEL-28; assay: Antiproliferative activity against human SK-MEL-28 cells assessed as cell growth at 10^-6 M after 48 hrs by sulforhodamine B assay; assay type: functional; details: SK-MEL-28, 48 h, read-out: Activity
[33] = Antiproliferative activity against human OVCAR4 cells assessed as cell growth at 10^-6 M after 48 hrs by sulforhodamine B assay; assay type: functional; details: OVCAR-4, 48 h, read-out: Activity
[34] = tested on: SN12C; assay: Antiproliferative activity against human SN12C cells assessed as cell growth at 10^-6 M after 48 hrs by sulforhodamine B assay; assay type: functional; details: read-out: Activity
[35] = tested on: M14; assay: Antiproliferative activity against human M14 cells assessed as cell growth at 10^-4 M after 48 hrs by sulforhodamine B assay; assay type: functional; details: M14, 48 h, read-out: Activity
[36] = Antiproliferative activity against human IGROV1 cells assessed as cell growth at 10^-4 M after 48 hrs by sulforhodamine B assay; assay type: functional; details: IGROV-1, 48 h, read-out: Activity
[37] = Antiproliferative activity against human RXF393 cells assessed as cell growth at 10^-4 M after 48 hrs by sulforhodamine B assay; assay type: functional; details: RXF 393, 48 h, read-out: Activity
[38] = Antiproliferative activity against human MOLT4 cells assessed as cell growth at 10^-4 M after 48 hrs by sulforhodamine B assay; assay type: functional; details: MOLT-4, 48 h, read-out: Activity

CNC(=O)c1cc(Oc2ccc(NC(=O)Nc3ccc(Cl)c(C(F)(F)F)c3)cc2)ccn1 [SORAFENIB]
GI50 [1]: 2.51 µM
TGI [1]: 10 µM
CC50 [1]: 39.8 µM
GI50 [2]: 2.51 µM
TGI [2]: 12.6 µM
GI50 [3]: 3.16 µM
TGI [3]: 20 µM
CC50 [3]: 79.4 µM
GI50 [4]: 2 µM
TGI [4]: 6.31 µM
CC50 [4]: 63.1 µM
GI50 [5]: 2.51 µM
TGI [5]: 12.6 µM
CC50 [5]: 39.8 µM
GI50 [6]: 3.16 µM
TGI [6]: 100 µM
GI50 [7]: 3.16 µM
TGI [7]: 100 µM
CC50 [7]: 100 µM
GI50 [8]: 1.58 µM

CNC(=O)c1cc(Oc2ccc3nc(NC(=O)Nc4cc(C(F)(F)F)cc(C(F)(F)F)c4)sc3c2)ccn1
GI50 [1]: 1.64 µM
TGI [1]: 3.79 µM
CC50 [1]: 8.76 µM
GI50 [2]: 0.542 µM
LC50 [2]: 5.7 µM
TGI [2]: 1.98 µM
GI50 [3]: 1.55 µM
TGI [3]: 3.52 µM
CC50 [3]: 7.97 µM
growth at 0.1 µM [9]: 106%
growth at 1 µM [10]: 32%
growth at 100 µM [11]: -60%
GI50 [4]: 0.908 µM
TGI [4]: 2.49 µM
CC50 [4]: 6.41 µM
growth at 0.1 µM [12]: 99%
growth at 0.1 µM [13]: 97%
GI50 [5]: 1.56 µM
TGI [5]: 3.29 µM
CC50 [5]: 6.97 µM
GI50 [6]: 0.514 µM
LC50 [6]: 31.6 µM
TGI [6]: 2.6 µM
GI50 [7]: 0.784 µM
TGI [7]: 4.86 µM
CC50 [7]: > 100 µM
GI50 [8]: 1.6 µM
TGI [8]: 4.17 µM
CC50 [8]: 20.4 µM
IC50 [14]: 0.566 µM
growth at 0.01 µM [15]: 99%
growth at 0.01 µM [16]: 81%
growth at 0.01 µM [17]: 93%
growth at 0.01 µM [18]: 97%
growth at 0.01 µM [19]: 99%
growth at 0.01 µM [20]: 91%
growth at 1 µM [21]: 34%
growth at 1 µM [22]: 60%
growth at 1 µM [23]: 51%
growth at 100 µM [24]: -71%
growth at 100 µM [25]: -91%
growth at 100 µM [26]: -100%
growth at 0.01 µM [27]: 92%
growth at 0.01 µM [28]: 102%
growth at 0.01 µM [29]: 99%
growth at 0.01 µM [30]: 101%
growth at 0.01 µM [31]: 85%
growth at 1 µM [32]: 66%
growth at 1 µM [33]: 49%
growth at 1 µM [34]: 80%
growth at 100 µM [35]: -73%
growth at 100 µM [36]: -60%
growth at 100 µM [37]: -70%

CNC(=O)c1cc(Oc2ccc3nc(NC(=O)Nc4ccc(Cl)c(Cl)c4)sc3c2)ccn1
GI50 [1]: 3.92 µM
TGI [1]: > 100 µM
CC50 [1]: > 100 µM
GI50 [2]: 2.1 µM
LC50 [2]: > 100 µM
TGI [2]: 5.56 µM
growth at 0.1 µM [9]: 99%
growth at 1 µM [10]: 106%
growth at 100 µM [11]: -21%
GI50 [4]: 1.51 µM
TGI [4]: 3.3 µM
CC50 [4]: 7.21 µM
growth at 0.1 µM [12]: 100%
growth at 0.1 µM [13]: 102%
GI50 [5]: 8.11 µM
TGI [5]: > 100 µM
CC50 [5]: > 100 µM
GI50 [6]: 6.47 µM
LC50 [6]: > 100 µM
TGI [6]: > 100 µM
GI50 [7]: > 100 µM
TGI [7]: > 100 µM
CC50 [7]: > 100 µM
GI50 [8]: > 100 µM
TGI [8]: > 100 µM
CC50 [8]: > 100 µM
IC50 [14]: 0.015 µM
growth at 0.01 µM [15]: 108%
growth at 0.01 µM [16]: 89%
growth at 0.01 µM [17]: 98%
growth at 0.01 µM [18]: 96%
growth at 0.01 µM [19]: 98%
growth at 0.01 µM [20]: 93%
growth at 1 µM [21]: 97%
growth at 1 µM [22]: 86%
growth at 1 µM [23]: 98%
growth at 100 µM [38]: 78%
growth at 100 µM [24]: -17%
growth at 100 µM [25]: -57%
growth at 100 µM [26]: -90%
growth at 0.01 µM [27]: 89%
growth at 0.01 µM [28]: 103%
growth at 0.01 µM [29]: 102%
growth at 0.01 µM [30]: 102%
growth at 0.01 µM [31]: 87%
growth at 1 µM [32]: 88%
growth at 1 µM [33]: 104%
growth at 1 µM [34]: 102%
growth at 100 µM [35]: -46%
growth at 100 µM [36]: -20%
growth at 100 µM [37]: -85%
